Reference: PubChem BioAssay AID328 (DTP/NCI, 2004)
Inconclusive results and toxic doses are left out. The calls were made as follows: active = survival T/C of 150% or more; inactive = T/C below 125% in these data.

Tested on: BDF1 mice, P388 leukemia ip, median survival T/C
Assay: NCI In Vivo Anticancer Drug Screen. Data for tumor model P388 Leukemia (intraperitoneal) in B6D2F1 (BDF1) mice
Conditions: endpoint: median survival time, higher = longer survival
Method in brief: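 Vehicle-dosed animals serve as the reference; survival of compound-dosed, tumour-implanted mice is divided by it.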

Measured: T/C

CN(C)c1ncnc2nsnc12
inactive: dose: 75.0 mg/kg/injection, schedule: Q04DX003 (ip), vehicle: saline with Tween-80 95 % of control

O=C(O)CNC(=O)/C(=C\c1[nH]c(=O)[nH]c(=O)c1Br)NC(=O)c1ccccc1
inactive: dose: 100.0 mg/kg/injection, schedule: Q04DX003 (ip), vehicle: saline with Tween-80 90 % of control | dose: 200.0 mg/kg/injection, schedule: Q04DX003 (ip), vehicle: saline with Tween-80 104 % of control | dose: 400.0 mg/kg/injection, schedule: Q04DX003 (ip), vehicle: saline with Tween-80 100 % of control

CN(C)C(=O)c1cccc(COc2ccc(N3C(N)=NC(N)=NC3(C)C)cc2Cl)c1
inactive: dose: 4.0 mg/kg/injection, schedule: Q03HX024 (ip), vehicle: saline 100 % of control | dose: 8.0 mg/kg/injection, schedule: Q03HX016 (ip), vehicle: saline 100 % of control | dose: 16.0 mg/kg/injection, schedule: Q01DX009 (ip), vehicle: saline 90 % of control | dose: 16.0 mg/kg/injection, schedule: Q01DX009 (sc), vehicle: saline 100 % of control | dose: 16.0 mg/kg/injection, schedule: Q03HX016 (ip), vehicle: saline 100 % of control | dose: 16.0 mg/kg/injection, schedule: Q03HX024 (ip), vehicle: saline 118 % of control | dose: 32.0 mg/kg/injection, schedule: Q01DX009 (ip), vehicle: saline 118 % of control | dose: 32.0 mg/kg/injection, schedule: Q01DX009 (sc), vehicle: saline 90 % of control | dose: 32.0 mg/kg/injection, schedule: Q03HX016 (ip), vehicle: saline 118 % of control | dose: 32.0 mg/kg/injection, schedule: Q04DX003 (ip), vehicle: saline 100 % of control | dose: 64.0 mg/kg/injection, schedule: Q01DX001 (ip), vehicle: saline 100 % of control | dose: 64.0 mg/kg/injection, schedule: Q01DX001 (sc), vehicle: saline 90 % of control | dose: 64.0 mg/kg/injection, schedule: Q01DX009 (oral), vehicle: saline 90 % of control | dose: 64.0 mg/kg/injection, schedule: Q04DX003 (ip), vehicle: saline 100 % of control | dose: 64.0 mg/kg/injection, schedule: Q08DX002 (ip), vehicle: saline 100 % of control | dose: 128.0 mg/kg/injection, schedule: Q01DX001 (oral), vehicle: saline 90 % of control | dose: 128.0 mg/kg/injection, schedule: Q01DX001 (sc), vehicle: saline 100 % of control | dose: 128.0 mg/kg/injection, schedule: Q01DX009 (oral), vehicle: saline 95 % of control | dose: 256.0 mg/kg/injection, schedule: Q01DX001 (oral), vehicle: saline 95 % of control | dose: 256.0 mg/kg/injection, schedule: Q01DX001 (sc), vehicle: saline 90 % of control | dose: 512.0 mg/kg/injection, schedule: Q01DX001 (oral), vehicle: saline 90 % of control | dose: 512.0 mg/kg/injection, schedule: Q01DX001 (sc), vehicle: saline 100 % of control | dose: 1024.0 mg/kg/injection, schedule: Q01DX001 (oral), vehicle: saline 95 % of control

CC(C)C(O)(C(=O)OCC1=CC[N+]2([O-])CCC(O)C12)C(C)O (stereo not drawn)
inactive: dose: 200.0 mg/kg/injection, schedule: Q01DX006 (ip), vehicle: water 110 % of control | dose: 800.0 mg/kg/injection, schedule: Q01DX006 (ip), vehicle: water 100 % of control | dose: 1600.0 mg/kg/injection, schedule: Q01DX006 (ip), vehicle: water 94 % of control

COc1cc2c(cc1OC)C(CNC(=O)/C=C/c1ccccc1)C2 (stereo not drawn)
inactive: dose: 100.0 mg/kg/injection, schedule: Q01DX001 (ip), vehicle: Klucel (hydroxypropylcellulose) (HPC) 115 % of control | dose: 200.0 mg/kg/injection, schedule: Q01DX001 (ip), vehicle: Klucel (hydroxypropylcellulose) (HPC) 110 % of control | dose: 400.0 mg/kg/injection, schedule: Q01DX001 (ip), vehicle: Klucel (hydroxypropylcellulose) (HPC) 120 % of control
